From patent US9766227B2, “Screening method for substance having hemocyte maturation acceleration action” (Bloom Technology Co., Ltd., priority 2010, dated 2017)
Where two headings read alike, the source gives them in different places.

Key:
K562 cells [1] = assay: Expression pattern of RGS proteins in hemin-stimulated K562 cell maturation, Western blotting; format: cell-based; conditions: 30 μM hemin, days 3, 6, 9 and 12
Procedure: K562 cells (5×10^6 cells/10 mL) were cultured by adding 4.5 g glucose/30 μM hemin to a DMEM solvent, and 2.5 mL of the same solvent was added at 3-day intervals. Cells were collected on days 3, 6, 9, and 12, and were dissolved in 100 μL of SDS Loading Buffer (6 M Urea). 10 μL were run on a 12% SDS-GEL, and after transferring to a blotting membrane, this was reacted with respective antibodies to the R4 RGS family (herein RGS1/RGS3/RGS16/RGS18) and another RGS family (herein, RGS14).

K562 cells [2] = conditions: 0.125 mM, with 30 μM hemin
Description: Cells were collected on days 0, 3, 6, 12, and 15, and the ability to assist induction of erythrocyte differentiation was examined using cell surface markers, glycophorin A (CD235a) and transferrin receptor (CD71), as indicators.
CD235(+/−)/CD71(++) represent K562 proerythroblast-like cells, CD235(+)/CD71(++) represent K562 basophilic erythroblast-like cells, CD235(+)/CD71(+) represent K562 polychromatic erythroblast-like cells, and CD235(+)/CD71(+/−) represent K562 orthochromatic erythroblast-like cells or reticulocytes. K562 cells are CD71-non-positive cells positioned upstream of pro-erythroblasts.
(§1) Using the same system that uses K562 cells for evaluating induction of differentiation, CD235/CD71 which are the existing indicators for induction of erythrocyte differentiation, and the new indicators lactoferrin (Lf)/C5a receptor (CD88) were compared and examined. Cells were collected on days 0, 3, 6, 12, and 15, and the ability to induce differentiation into erythrocytes was examined using Lf/CD88 as the indicators.
as §1, with “FAS ligand (CD178)/C5a” for “lactoferrin (Lf)/C5a”, “CD178/CD88” for “Lf/CD88”, “indicator.” for “indicators.”

hemin
expression of RGS14 (K562 cells [1]): did not change | expression of the R4 RGS family (RGS1/RGS3/RGS16/RGS18) (K562 cells [1]): increased

manganese chloride
induction of differentiation after erythroblast formation (K562 cells [2]; markers CD178/CD88): inhibited | number of days taken for maturation to form erythroblasts (K562 cells [2]; markers CD178/CD88): reduced | induction of differentiation after erythroblast formation (K562 cells [2]; markers CD235/CD71): inhibited | number of days taken for maturation until erythroblast formation (K562 cells [2]; markers CD235/CD71): reduced | induction of differentiation after erythroblast formation (K562 cells [2]; markers Lf/CD88): inhibited | number of days taken for maturation until erythroblast formation (K562 cells [2]; markers Lf/CD88): reduced
